Test results published in publication PMC8428568, “Discovery of re-purposed drugs that slow SARS-CoV-2 replication in human cells” (PLoS Pathogens, 2021).
Structures can show the parent of a compound that is named as a salt. Where two headings read alike, the source gives them in different places. *1 amine or outer side, *2 acyl side, *3 side chain or, on linkers, in order; H or OH if unused. Where a SMILES comes first, the peptide text is derived from it. Bridges are numbered along the chain shown (N, C = ends). [ ]: non-standard residue; d: D form. The star is where a group is joined. pTerphenylCO(4''-OnC5H11) = CCCCCOc1ccc(-c2ccc(-c3ccc(C(=O)*)cc3)cc2)cc1; Orn(4R-OH,5R-OH) = O=C([C@H](C[C@@H](O)[C@@H](O)N[*:3])N[*:1])[*:2]; hTyr(3S-OH,4S-OH) = N[C@H](C(=O)O)[C@H](O)[C@@H](O)c1ccc(O)cc1; Pro(3S-OH,4S-Me) = C[C@H]1CN[C@H](C(=O)O)[C@H]1O; Hyp = O=C(O)[C@@H]1C[C@@H](O)CN1

Key:
[1] = tested on: SARS-CoV-2-ΔOrf7a-NLuc virus; assay: microbe, parasite or virus in culture; assay type: cell-based; conditions: for activity at 10 µM: Severe acute respiratory syndrome coronavirus 2, Vero, 72 h, read-out: Mean relative luminescence (n=4)
recombinant NLuc = assay type: biochemical
HUH7 cells = conditions: for toxic effects on cells: HUH7 cells screen
[2] = tested on: SARS-CoV-2-ΔOrf7a-NLuc virus; assay: microbe, parasite or virus in culture; assay type: cell-based
[3] = Vero screen, […], relative luminescence
[4] = […], 1 = untreated, 0 = total inhibition
[5] = recombinant NLuc activity relative to DMSO
[6] = recombinant NLuc, first read column
[7] = recombinant NLuc, fourth read column
[8] = recombinant NLuc, third read column
[9] = Vero cells, 10 μM, 1 = DMSO-treated infected cells
[10] = HUH7 screen, […], relative luminescence

| Compound | % activity in Vero 100PFU screen [1] [%] | Relative Recombinant NLUC (recombinant NLuc; [5]) | Reads Counts per second (read 1) (recombinant NLuc; [6]) [Counts per second] | Reads Counts per second (read 4) (recombinant NLuc; [7]) [Counts per second] | Reads Counts per second (read 3) (recombinant NLuc; [8]) [Counts per second] | PrestoBlue relative viability (Vero cells; [9]) | activity at 10 µM [1, 4] [%] | other results |
| --- | --- | --- | --- | --- | --- | --- | --- | --- |
| CN(C)CC/C=C1/c2ccccc2Sc2ccc(Cl)cc21.Cl [Chlorprothixene (hydrochloride)] | 4.28 | 0.9574 | 359664 | 361186 | 361391 | 0.8299 | – | Mean relative luminescence (n=4) [1, 3]: 0.0137; Mean relative luminescence (n=4) [1, 4]: 0.0137; PrestoBlue relative viability (HUH7 cells; HUH7 screen): 0.7623; PrestoBlue relative viability (Vero cells; Vero screen): 0.8299; Mean relative luminescence (n=4) [2, 10]: 0.03176 |
| CNCC[C@H](Oc1cccc2ccccc12)c1cccs1 [Duloxetine HCl] | 12 | – | – | – | – | – | – | activity at 10 µM [1]: 9.8%; Reads Counts per second (read 1) (recombinant NLuc): 297459 Counts per second; Reads Counts per second (read 3) (recombinant NLuc): 293652 Counts per second; Reads Counts per second (read 4) (recombinant NLuc): 301826 Counts per second; Relative Recombinant NLUC (recombinant NLuc): 0.7894; PrestoBlue relative viability (HUH7 cells; human): 0.5048; PrestoBlue relative viability (Vero cells; African green monkey): 0.9914; Mean relative luminescence (n=4) [2]: 0.02845 |
| CCN(CCO)CCCC(C)Nc1ccnc2cc(Cl)ccc12 (stereo not shown) [hydroxychloroquine] | – | – | – | – | – | – | – | toxic effects on cells (HUH7 cells): toxic effects on cells; effect on virus replication [2]: did show some effects |
| OCCOc1ccc(/C(=C(/CCCl)c2ccccc2)c2ccccc2)cc1 [Ospemifene] | 4 | – | – | – | – | – | – | activity at 10 µM [1]: 1.57%; Reads Counts per second (read 1) (recombinant NLuc): 356755 Counts per second; Reads Counts per second (read 3) (recombinant NLuc): 358779 Counts per second; Reads Counts per second (read 4) (recombinant NLuc): 352991 Counts per second; Relative Recombinant NLUC (recombinant NLuc): 0.9407; PrestoBlue relative viability (HUH7 cells; human): 1.203; PrestoBlue relative viability (Vero cells; African green monkey): 0.6863; Mean relative luminescence (n=4) [2]: 0.1449 |
| C[C@@H]1C[C@H]2[C@@H]3CCC4=CC(=O)C=C[C@]4(C)[C@@]3(F)[C@@H](O)C[C@]2(C)[C@@]1(O)C(=O)CO [dexamethasone] | – | – | – | – | – | – | – | effect on virus replication [1]: did not demonstrate any effect on viral replication; effect on virus replication [2]: did not demonstrate any effect on viral replication |
| Cc1cccc(C)c1OCC(=O)N[C@@H](Cc1ccccc1)[C@@H](O)C[C@H](Cc1ccccc1)NC(=O)[C@H](C(C)C)N1CCCNC1=O [Lopinavir] | – | – | – | – | – | – | – | effect on virus replication [1]: failed to halt replication of SARS-CoV-2; effect on virus replication [2]: failed to halt replication of SARS-CoV-2 |
| O=C1CCc2ccc(OCCCCN3CCN(c4cccc(Cl)c4Cl)CC3)cc2N1 [Aripiprazole] | – | – | – | – | – | 0.6278 | 10.1 | Mean relative luminescence (n=4) [1, 3]: 0.1007; PrestoBlue relative viability (HUH7 cells; HUH7 screen): 0.7416; PrestoBlue relative viability (Vero cells; Vero screen): 0.6278; Mean relative luminescence (n=4) [2, 10]: 0.008694 |
| COC(=O)C[C@](O)(CCCC(C)(C)O)C(=O)O[C@@H]1C(OC)=C[C@]23CCCN2CCc2cc4c(cc2[C@H]13)OCO4 [Homoharringtonine] | – | – | – | – | – | 0.5068 | 1.44 | Mean relative luminescence (n=4) [1, 3]: 0.01441; PrestoBlue relative viability (HUH7 cells; HUH7 screen): 0.6794; PrestoBlue relative viability (Vero cells; Vero screen): 0.5068; Mean relative luminescence (n=4) [2, 10]: 0.0133 |
| CCOC(=O)C1=C(COCCN)NC(C)=C(C(=O)OC)C1c1ccccc1Cl (stereo not shown) [Amlodipine Besylate] | – | – | – | – | – | 1.385 | 12.4 | Mean relative luminescence (n=4) [1, 3]: 0.124; PrestoBlue relative viability (HUH7 cells; HUH7 screen): 0.6859; PrestoBlue relative viability (Vero cells; Vero screen): 1.385; Mean relative luminescence (n=4) [2, 10]: 0.03381 |
| Cl.Cl.Fc1ccc(C(c2ccc(F)cc2)N2CCN(C/C=C/c3ccccc3)CC2)cc1 [Flunarizine 2HCl] | – | – | – | – | – | 2.629 | – | Mean relative luminescence (n=4) [1, 3]: 0.1133; Mean relative luminescence (n=4) [1, 4]: 0.1133; PrestoBlue relative viability (HUH7 cells; HUH7 screen): 0.9689; PrestoBlue relative viability (Vero cells; Vero screen): 2.629; Mean relative luminescence (n=4) [2, 10]: 0.1091 |
| Cc1ccc(NC(=O)c2ccc(CN3CCN(C)CC3)cc2)cc1Nc1nc(-c2cccnc2)cs1 [Masitinib (AB1010), Masitinib] | – | – | – | – | – | 1.308 | 13.4 | Mean relative luminescence (n=4) [1, 3]: 0.1339; PrestoBlue relative viability (HUH7 cells; HUH7 screen): 0.7156; PrestoBlue relative viability (Vero cells; Vero screen): 1.308; Mean relative luminescence (n=4) [2, 10]: 0.03917 |
| CC[C@H]1OC(=O)[C@H](C)[C@@H](O[C@H]2C[C@@](C)(OC)[C@@H](O)[C@H](C)O2)[C@H](C)[C@@H](O[C@@H]2O[C@H](C)C[C@H](N(C)C)[C@H]2O)[C@](C)(O)C[C@@H](C)CN(C)[C@H](C)[C@@H](O)[C@]1(C)O [azithromycin] | – | – | – | – | – | – | – | toxic effects on cells (HUH7 cells): toxic effects on cells; effect on virus replication [2]: did show some effects |
| C=C1/C(=C\C=C2/CCC[C@]3(C)[C@@H]([C@H](C)/C=C/[C@H](C)C(C)C)CC[C@@H]23)C[C@@H](O)C[C@@H]1O [Doxercalciferol] | 8 | 0.9613 | 361602 | 356613 | 370984 | 0.5418 | 5.56 | – |
| CC(C)c1nc(CN(C)C(=O)N[C@H](C(=O)N[C@@H](Cc2ccccc2)C[C@H](O)[C@H](Cc2ccccc2)NC(=O)OCc2cncs2)C(C)C)cs1 [Ritonavir] | – | – | – | – | – | – | – | effect on virus replication [1]: failed to halt replication of SARS-CoV-2; effect on virus replication [2]: failed to halt replication of SARS-CoV-2 |
| C[C@]12CC[C@H](O)CC1=CC[C@@H]1[C@@H]2CC[C@]2(C)C(c3cccnc3)=CC[C@@H]12 [Abiraterone] | 6.46 | 0.7592 | 279631 | 289231 | 288897 | 0.5649 | 6.48 | Reads Counts per second (read 2) (recombinant NLuc; recombinant NLuc): 289523 Counts per second |
| C=C1CC[C@H](O)C/C1=C/C=C1\CCC[C@]2(C)[C@@H]([C@H](C)/C=C/[C@H](C)C(C)C)CC[C@@H]12 [vitamin D2] | – | – | – | – | – | – | – | effect on virus replication [1]: also reduced virus replication but did not meet all criteria; effect on virus replication [2]: also reduced virus replication but did not meet all criteria |
| O=C(/C=C/c1cccc(S(=O)(=O)Nc2ccccc2)c1)NO [Belinostat (PXD101), Belinostat] | 4.67 | 0.9408 | 351877 | 355423 | 352055 | 0.895 | 0.0366 | Reads Counts per second (read 2) (recombinant NLuc; recombinant NLuc): 362403 Counts per second |
| CCCCCOc1ccc(-c2ccc(-c3ccc(C(=O)N[C@H]4C[C@@H](O)[C@@H](O)NC(=O)[C@@H]5[C@@H](O)[C@@H](C)CN5C(=O)[C@H]([C@@H](C)O)NC(=O)[C@H]([C@H](O)[C@@H](O)c5ccc(O)cc5)NC(=O)[C@@H]5C[C@@H](O)CN5C(=O)[C@H]([C@@H](C)O)NC4=O)cc3)cc2)cc1 [Anidulafungin] ({pTerphenylCO(4''-OnC5H11)}-[Orn(4R-OH,5R-OH)]T[Hyp][hTyr(3S-OH,4S-OH)]T[Pro(3S-OH,4S-Me)]; lactam 1-C) | 4.57 | 0.974 | 365229 | 366012 | 364202 | 0.5453 | 2.32 | Reads Counts per second (read 2) (recombinant NLuc; recombinant NLuc): 376574 Counts per second |
| CN1CCN(CCCN2c3ccccc3Sc3ccc(C(F)(F)F)cc32)CC1.Cl.Cl [Trifluoperazine 2HCl] | 7 | 0.9397 | 358281 | 360671 | 348422 | 0.6995 | – | Mean relative luminescence (n=4) [1, 4]: 0.05678 |
| CC(C)(Sc1cc(C(C)(C)C)c(O)c(C(C)(C)C)c1)Sc1cc(C(C)(C)C)c(O)c(C(C)(C)C)c1 [Probucol] | 5 | 0.9023 | 337686 | 339611 | 341300 | 0.7536 | 2.23 | – |
| Cc1ccc(Sc2ccccc2N2CCNCC2)c(C)c1 [Vortioxetine] | 6 | 0.8732 | 326546 | 332965 | 329264 | 0.6088 | 4.21 | – |
| Br.Cc1ccc(Sc2ccccc2N2CCNCC2)c(C)c1 [Vortioxetine (Lu AA21004) HBr] | 1.39 | 0.7479 | 280784 | 284019 | 284246 | 0.509 | – | Mean relative luminescence (n=4) [1, 4]: 0.007391 |
